Results: patent US9763444B2, “Compositions and methods for repelling blood-sucking and biting insects, ticks and mites” (The United States of America, as represented by the …, priority 2013, dated 2017)

Key:
[1] = test system: Ae. aegypti; experiment: Minimum Effective Dosage (MED) test on treated cloth, mosquito repellency; format: in vivo, Aedes aegypti; details: for Ae. aegypti Minimum Effective Dosage, F1 / Ae. aegypti Minimum Effective Dosage, M1 / Ae. aegypti Minimum Effective Dosage, M2 / Ae. aegypti Minimum Effective Dosage, Average: Table 2; for Ae. aegypti Minimum Effective Dosage, F1: human subject F1; for Ae. aegypti Minimum Effective Dosage, F1 / Ae. aegypti Minimum Effective Dosage, M1 / Ae. aegypti Minimum Effective Dosage, M2: highest concentration 1.500 mg/cm^2; for Ae. aegypti Minimum Effective Dosage, M1: human subject M1; for Ae. aegypti Minimum Effective Dosage, M2: human subject M2; for Ae. aegypti Minimum Effective Dosage, Average: mean of 3 volunteers
Experimental: Bioassay for mosquito repellent activity: Repellency screening test for experimental chemicals were carried out to identify candidates that might be useful repellents. The repellent efficacy was compared to that of the standard repellent, DEET. Experimental compounds were assessed in one of two ways: (1) a range of concentration was evaluated to determine the minimum effective dosage (MED) which was the concentration threshold of where the repellent began to fail and allowed bites, or (2) a predetermined concentration of each repellent was applied to cloth and the activity was evaluated over several days (or in some cases months) (Katritzky, A. R., et al., Proc. Nat. Acad. Sci. (US), 105, 7359-7364 (2008); Katritzky, A. R., et al., Journal of Med. Entomol., 47: 924-938 (2010)). When conducting assays for repellency, a failure point was also predetermined for those measurements. Since experiments described herein used about 500 female mosquitoes per test, the failure point was set at 1% (equal to 5 bites) received during a test interval. From 3 to 5 volunteers participated in the screening of each set of chemicals.
Minimum Effective Dosage (MED) Test: The MED bioassays on treated cloth were a method of screening to determine the minimum amount of a repellent needed to prevent bites. Experimental compounds were prepared in solution by combining 0.15 g of experimental chemical with 2 mL of acetone in a 7.1 mL screwtop glass vial. This solution was then serially diluted to obtain nine concentrations when applied on to the cloth patch: 1.5, 0.75, 0.375, 0.187, 0.094, 0.047, 0.023, 0.011, and 0.006 mg/cm^2. The standard N,N-diethyl-3-methylbenzamide (DEET) was also tested at the same concentration levels to serve as a control and a comparison for relative repellency. A 50 cm^2 (5 cm×10 cm) patch of muslin cloth was rolled lengthwise and placed into each of the glass vials and scaled with a screwtop so it soaked up the solution. Just prior to the experiment, the pieces of treated cloth were removed from the vials, affixed to card stock tabs (5 cm×3 cm) with staples, and hung with masking tape on a rack to dry and allow acetone to evaporate. Volunteers wore a latex glove over their hands, a nylon stocking over their arm, and then wrapped a plastic Velcro-sealed sleeve over their entire forearm with a 32 cm^2 (4 cm×8 cm) window cut-out to allow mosquitoes to bite through. The nylon stocking acted as a barrier between the dried cloth and the skin, an additional precaution with experimental compounds. Dried cloth patches were stretched across the window in the plastic sleeve and held in place with masking tape. Volunteers placed their sleeve-covered arms into a screened cage for a one minute period with approximately 500 female Ae. aegypti mosquitoes that had been preselected for host-seeking behavior using a draw box (Posey, K. H., and C. E. Schreck, Mosquito News, 41: 566-568 (1981)). […] The MED recorded was the lowest passing concentration level tested for the experimental compound. […] All human volunteers in the study provided informed consent to participate of a protocol approved by the University of Florida Human Use Institutional Review Board (IRB #636-2005).

[2] = test system: Ae. aegypti; experiment: Complete Protection Time test on treated cloth (duration of protection); format: in vivo, Aedes aegypti; details: Dosage 0.75 mg/cm^2 on cloth; for Duration of protection against Ae. aegypti, M-3 Days Protection: subject M-3
Experimental: Bioassay for mosquito repellent activity: Repellency screening test for experimental chemicals were carried out to identify candidates that might be useful repellents. The repellent efficacy was compared to that of the standard repellent, DEET. Experimental compounds were assessed in one of two ways: (1) a range of concentration was evaluated to determine the minimum effective dosage (MED) which was the concentration threshold of where the repellent began to fail and allowed bites, or (2) a predetermined concentration of each repellent was applied to cloth and the activity was evaluated over several days (or in some cases months) (Katritzky, A. R., et al., Proc. Nat. Acad. Sci. (US), 105, 7359-7364 (2008); Katritzky, A. R., et al., Journal of Med. Entomol., 47: 924-938 (2010)). When conducting assays for repellency, a failure point was also predetermined for those measurements. Since experiments described herein used about 500 female mosquitoes per test, the failure point was set at 1% (equal to 5 bites) received during a test interval. From 3 to 5 volunteers participated in the screening of each set of chemicals. Complete Protection Time Test: Complete protection time (CPT) on treated cloth is a method of screening that is used to determine the repellent duration for experimental chemicals that have not been examined for safe use on humans. The standard repellent DEET was used as a positive control as a benchmark by which to compare the repellents. Experimental compounds were prepared in solution by combining 0.075 g of experimental chemical with 1 mL of acetone in a 7.1-mL screwtop glass vial. The same concentration level of DEET was also prepared in this way to serve as a control and a comparison for relative repellency. A 50 cm^2 (5 cm×10 cm) patch of muslin cloth was rolled lengthwise and placed into each of the glass vials and sealed with a screwtop so it soaked up the solution. Just prior to the experiment, the pieces of treated cloth were removed from the vials, affixed to card stock tabs (5 cm×3 cm) with staples, and hung with masking tape on a rack to dry and allowed the volatile acetone to evaporate. Similar to the MED tests, volunteers wore a latex glove over their hands, a nylon stocking over their arm, and then wrapped a plastic Velcro-sealed sleeve over their entire forearm with a 32 cm^2 (4 cm×8 cm) window cut-out to allow mosquitoes to bite through. Dried cloth patches were stretched across the window in the plastic sleeve and held in place with masking tape. Volunteers placed their sleeve-covered arms into a screened cage for a one minute period with approximately 500 female Ae. aegypti mosquitoes that had been preselected for host-seeking behavior using a draw box. A cloth patch that received a 1% bite through level, equal to 5 mosquitoes that bit out of 500 mosquitoes, was considered a failure at that concentration. If 0-4 bites were received, then the treated cloth was still considered to be repellent at that concentration. The duration was recorded as the number of days an experimental chemical received a passing result, with day 0 being the day the sample was first dried. […] As with the tests conducted to determine CPT, volunteers in the study provided informed consent (IRB protocol #636-2005). The protocol was approved by the University of Florida Human Use Institutional Review Board.

Row | SMILES | Ae. aegypti Minimum Effective Dosage, F1 [1] [mg/cm^2] | Ae. aegypti Minimum Effective Dosage, M1 [1] [mg/cm^2] | Ae. aegypti Minimum Effective Dosage, M2 [1] [mg/cm^2] | Ae. aegypti Minimum Effective Dosage, Average [1] [mg/cm^2] | Duration of protection, Proportion to DEET [2] | Duration of protection against Ae. aegypti, M-3 Days Protection [2] [days] | mosquito repellent activity against Ae. aegypti (in words) ([1]; MED test on treated cloth)
1 | CC1(C)C=Cc2cc(CCO)ccc2O1 [Compound 9] | 0.375 | 0.375 | 0.375 | 0.375 | 0.50 | 1 | –
2 | CC1(C)C=Cc2c(C(=O)O)ccc(Cl)c2O1 [Compound 13, 8-chloro-2,2-dimethyl-2H-chromene-5-carboxylic acid] | >1.500 | >1.500 | >1.500 | – | 0.50 | 1 | –
3 | CC1(C)C=Cc2c(CO)ccc(Cl)c2O1 [Compound 11, (8-chloro-2,2-dimethyl-2H-chromen-5-yl)methanol] | 0.011 | 0.011 | 0.011 | 0.011 | 1.00 | – | act as mosquito repellents
